How the values were obtained:
ROMK (Kir1.1) channel = target: T1, ROMK (Kir1.1) channel (Homo sapiens, UniProt P48048); experiment: Thallium Flux Assay; type: cell-based
T1 sequence (P48048 1-391): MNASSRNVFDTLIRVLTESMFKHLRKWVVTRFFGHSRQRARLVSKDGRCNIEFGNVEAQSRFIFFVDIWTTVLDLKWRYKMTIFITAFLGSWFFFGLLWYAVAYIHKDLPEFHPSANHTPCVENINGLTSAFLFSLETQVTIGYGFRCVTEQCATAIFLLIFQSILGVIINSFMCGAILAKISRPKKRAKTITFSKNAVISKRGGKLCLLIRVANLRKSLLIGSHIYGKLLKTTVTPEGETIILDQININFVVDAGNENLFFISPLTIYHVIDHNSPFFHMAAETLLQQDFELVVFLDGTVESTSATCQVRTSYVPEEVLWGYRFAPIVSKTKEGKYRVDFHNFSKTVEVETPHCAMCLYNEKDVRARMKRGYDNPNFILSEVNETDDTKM
Procedure: A Thallium Flux Assay was performed on the compounds of the Examples. This assay has been described previously; see, e.g., PCT Published Application WO 2013/062900.

Kir1.1 (ROMK1) = target: T2, Kir1.1 (ROMK1) (Homo sapiens, UniProt P48048); experiment: Electrophysiology Assay (whole cell voltage clamp, IonWorks Quattro); type: cell-based; settings: Chinese hamster ovary cells stably expressing Kir1.1; fractional block at voltage step to 0 mV; 6 min compound incubation
T2 construct: expressed in transfected cells
T2 sequence (P48048 1-391): T1 sequence (P48048 1-391)
Procedure: Blocking of Kir1.1 (ROMK1) currents was examined by whole cell voltage clamp (Hamill et. al. Pfluegers Archives 391:85-100 (1981) using the IonWorks Quattro automated electrophysiology platform (Molecular Devices, Sunnyvale, Calif.). Chinese hamster ovary cells stably expressing Kir1.1 channels were maintained in T-75 flasks in cell culture media in a humidified 10% CO2 incubator at 37° C. Prior to an experiment, Kir1.1 expression was induced by overnight incubation with 1 mM sodium butyrate. On the day of the experiment, cells were dissociated with 2.5 mL of Versene (Invitrogen 15040-066), a non-enzymatic cell dissociation reagent, for approximately 6 min at 37° C. and suspended in 10 mL of bath solution containing (in mM): 150 NaCl, 10 KCl, 2.7 CaCl2, 0.5 MgCl2, and 5 HEPES, at pH 7.4. After centrifugation, the cell pellet was resuspended in approximately 4.0 mL of bath solution and placed in the IonWorks instrument. The intracellular solution consisted of (in mM): 80 K gluconate, 40 KCl, 20 KF, 3.2 MgCl2, 3 EGTA, and 5 Hepes, at pH 7.4. Electrical access to the cytoplasm was achieved by perforation in 0.13 mg/mL amphotericin B for 4 min. Amphotericin B (Sigma A-4888) was prepared as a 40 mg/mL solution in DMSO.
Voltage protocols and current recordings were performed using the IonWorks HT software/hardware system. Currents were sampled at 1 kHz. There was no correction for liquid junction potentials. The test pulse, consisting of a 100 ms (millisecond) step to 0 mV (millivolts) from a holding potential of −70 mV, followed by a 100 ms voltage ramp from −70 mV to +70 mV, was applied before and after a 6 min compound incubation period. Test compounds were prepared by diluting DMSO stock solutions into the bath solution at 3× the final concentration and placed in the instrument in 96-well polypropylene plates. Current amplitudes were measured using the IonWorks software. To assess compound potency, the fractional block during the voltage step to 0 mV was calculated in Microsoft Excel (Microsoft, Redmond, Calif.), and dose-response curves were fitted with Igor Pro 4.0 (WaveMetrics, Lake Oswego, Oreg.). Although not required, a control compound is typically included to support that the assay is giving consistent results compared to previous measurements.

CC1=C(N2N=CC3(CCN(CCc4ccc(-n5cnnn5)nn4)CC3)C2=O)COC1=O [Example 5, 8-(2-(6-(1H-tetrazol-1-yl)pyridazin-3-yl)ethyl)-2-(4-methyl-5-oxo-2,5-dihydrofuran-3-yl)-2,3,8-triazaspiro[4.5]dec-3-en-1-one]
IC50 (ROMK (Kir1.1) channel): 45.8 nM

CC1=C(N2N=CC3(CCN(CC(O)c4ccc(-n5cnnn5)nn4)CC3)C2=O)COC1=O (single isomer, unassigned) [Example 4A, 8-(2-(6-(1H-tetrazol-1-yl)pyridazin-3-yl)-2-hydroxyethyl)-2-(4-methyl-5-oxo-2,5-dihydrofuran-3-yl)-2,3,8-triazaspiro[4.5]dec-3-en-1-one]
IC50 (ROMK (Kir1.1) channel): 267 nM

CC1=C(N2NCC3(CCN(C[C@H](O)c4ccc(-n5cnnn5)nc4)CC3)C2=O)COC1=O [Example 2A, (R)-8-(2-(6-(1H-tetrazol-1-yl)pyridin-3-yl)-2-hydroxyethyl)-2-(4-methyl-5-oxo-2,5-dihydrofuran-3-yl)-2,3,8-triazaspiro[4.5]decan-1-one]
IC50 (ROMK (Kir1.1) channel): 36.5 nM | IC50 (Kir1.1 (ROMK1)): 53 nM

CC1=C(N2NCC3(CCN(C[C@@H](O)c4ccc(-n5cnnn5)nc4)CC3)C2=O)COC1=O [Example 2B, (S)-8-(2-(6-(1H-tetrazol-1-yl)pyridin-3-yl)-2-hydroxyethyl)-2-(4-methyl-5-oxo-2,5-dihydrofuran-3-yl)-2,3,8-triazaspiro[4.5]decan-1-one]
IC50 (ROMK (Kir1.1) channel): 57.8 nM | IC50 (Kir1.1 (ROMK1)): 33 nM

CC1=C(N2N=CC3(CCN(C[C@@H](O)c4ccc(-n5cnnn5)nc4)CC3)C2=O)COC1=O [Example 3B, (S)-8-(2-(6-(1H-tetrazol-1-yl)pyridin-3-yl)-2-hydroxyethyl)-2-(4-methyl-5-oxo-2,5-dihydrofuran-3-yl)-2,3,8-triazaspiro[4.5]dec-3-en-1-one]
IC50 (ROMK (Kir1.1) channel): 57.1 nM

CC1=C(N2N=CC3(CCN(C[C@H](O)c4ccc(-n5cnnn5)nc4)CC3)C2=O)COC1=O [Example 3A, (R)-8-(2-(6-(1H-tetrazol-1-yl)pyridin-3-yl)-2-hydroxyethyl)-2-(4-methyl-5-oxo-2,5-dihydrofuran-3-yl)-2,3,8-triazaspiro[4.5]dec-3-en-1-one]
IC50 (ROMK (Kir1.1) channel): 54.9 nM | IC50 (Kir1.1 (ROMK1)): 17 nM

CC1=C(N2NCC3(CCN(C[C@H](O)c4ccc5c(c4C)COC5=O)CC3)C2=O)COC1=O [Example 1, (R)-8-(2-hydroxy-2-(4-methyl-1-oxo-1,3-dihydroisobenzofuran-5-yl)ethyl)-2-(4-methyl-5-oxo-2,5-dihydrofuran-3-yl)-2,3,8-triazaspiro[4.5]decan-1-one]
IC50 (ROMK (Kir1.1) channel): 68.4 nM | IC50 (Kir1.1 (ROMK1)): 33 nM

Source: patent US9862720B2, “Inhibitors of the renal outer medullary potassium channel” (Merck Sharp & Dohme Corp., priority 2014, dated 2018)
